In paper PMC5340293 (Bioorganic & medicinal chemistry letters, 2016):
Read-outs that look alike come from different tables or passages of the source.

Tests used:
[1] = target: T1, PAR4 (Homo sapiens, UniProt Q96RI0); details: cited from earlier work
T1 sequence (Q96RI0 18-385): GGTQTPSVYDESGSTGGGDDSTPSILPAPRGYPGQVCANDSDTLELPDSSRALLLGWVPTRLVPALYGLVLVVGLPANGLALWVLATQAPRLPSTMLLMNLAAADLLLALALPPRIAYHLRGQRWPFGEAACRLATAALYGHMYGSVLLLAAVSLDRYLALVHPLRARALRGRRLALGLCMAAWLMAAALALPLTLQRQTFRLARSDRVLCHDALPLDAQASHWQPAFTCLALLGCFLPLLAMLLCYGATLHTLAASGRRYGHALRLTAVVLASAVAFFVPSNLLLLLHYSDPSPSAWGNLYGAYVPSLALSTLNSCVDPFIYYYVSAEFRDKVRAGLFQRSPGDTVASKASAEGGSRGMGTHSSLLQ

[2] = target: T1, PAR4; test: Progressive fold-shift; format: cell-based; details: for mode of PAR4 inhibition: progressive fold-shift, parallel right-ward shift of CRC
[3] = test system: collagen receptor; test: Platelet aggregation, collagen I activation; format: cell-based, human; details: 10 μg/ml collagen I; antagonist at micromolar concentrations
[4] = target: T2, PAR4 (Homo sapiens, UniProt Q96RI0); test: γ-thrombin stimulated PAC-1 binding, flow cytometry; format: cell-based
T2 sequence (Q96RI0 48-385 limits assumed): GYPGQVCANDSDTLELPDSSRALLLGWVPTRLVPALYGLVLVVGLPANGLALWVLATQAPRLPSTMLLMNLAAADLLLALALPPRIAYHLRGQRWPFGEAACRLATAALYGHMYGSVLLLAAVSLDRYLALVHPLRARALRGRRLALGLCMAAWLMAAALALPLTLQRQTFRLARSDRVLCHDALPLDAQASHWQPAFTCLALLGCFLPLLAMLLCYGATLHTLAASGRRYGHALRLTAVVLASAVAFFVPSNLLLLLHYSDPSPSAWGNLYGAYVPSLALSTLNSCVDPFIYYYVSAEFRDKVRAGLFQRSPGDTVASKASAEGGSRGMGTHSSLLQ

[5] = target: T1, PAR4; test: PAR4-AP stimulated PAC-1 binding, flow cytometry; format: cell-based

| SMILES | Schild EC50 log DR-1 versus log [antagonist] plot slope [2] | mode of PAR4 inhibition [2] | further results |
| --- | --- | --- | --- |
| COc1cc(OCc2csc(-c3ccccc3)n2)c2cc(-c3cn4nc(OC)sc4n3)oc2c1 [compound 2] |  |  | mode of PAR4 inhibition [1]: mixed competitive/non-competitive |
| COc1nn2cc(-c3cc4ccccc4o3)nc2s1 [compound 3, 6-(benzofuran-2-yl)-2-methoxyimidazo[2,1-b][1,3,4]thiadiazole] |  |  | off-target effects on the collagen receptor (collagen I induced aggregation) [3]: devoid |
| COc1nn2cc(-c3cc4cc(OC(F)(F)F)ccc4n3C)nc2s1 [compound 5] |  |  | γ-thrombin ligand efficiency (LE) [4]: 0.33; fold more potent than 1 against AP [5]: ~ 9 fold; off-target effects on the collagen receptor (collagen I induced aggregation) [3]: eliminated |
| CNc1nn2cc(-c3c(F)cccc3F)nc2s1 [NHCH3 derivative] |  |  | PAR4 inhibitory activity ([5]; result in words): inactive |

Now from value to molecule, other results behind:

| Schild EC50 log DR-1 versus log [antagonist] plot slope [2] | mode of PAR4 inhibition [2] | SMILES | further results |
| --- | --- | --- | --- |
| 0.95±0.09 | competitive | COc1nn2cc(-c3ccc(C(F)(F)F)cc3)nc2s1 [4c] |  |
| 0.94±0.08 | competitive | COc1nn2cc(-c3ccc(OC(F)(F)F)cc3)nc2s1 [4n] |  |
| 1.09±1.3 | competitive | COc1nn2cc(-c3ccc(Cl)cc3)nc2s1 [4k] |  |
